The structures appear in SMILES notation.

As usually defined, the EC50 is the concentration needed to bring the measured effect to its halfway point. The Emax is the maximal effect, on the per cent scale that the assay sets. As usually defined, the microsomal CLint is the capacity of the preparation to metabolise the compound, expressed as a volume cleared per time. A low value points to slow turnover.

For one series, the target named is 5-HT1B receptor (Homo sapiens, UniProt P28222). Description: cAMP accumulation agonist assay at 5-HT1B. The series is classed as cell-based. The conditions noted are these: cAMP, agonist; read-out: 5-HT1B EC50. The procedure, abridged: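 Agonism was measured by cAMP accumulation in stably transfected cells incubated 60 min at RT. A detection reagent was then added for 60 min at RT before reading, with an 800 nM cAMP standard in blank wells.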
For orientation: Changes in cAMP serve as a functional read-out for many G protein-coupled receptors.

The target in a further series is T1, 5-HT2A receptor (Homo sapiens, UniProt P28223).
T1 construct: host or cells: HEK293
Description: PathHunter beta-arrestin recruitment assay at 5-HT2A. The series is classed as cell-based. The conditions noted are these: 5-HT2A beta-arrestin. In short, it runs like this: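 Cells co-express PK-tagged 5-HT2A and beta-arrestin fused to a beta-galactosidase deletion mutant, so arrestin recruitment restores enzyme activity, read by chemiluminescence; cells were held at 37° C before testing. Agonist % activity = RLU over vehicle, relative to the maximal control ligand.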
On the technique in general: Recruitment of arrestin is a read-out of receptor activation apart from second messengers.

The target of a further series is T2, Alpha1A receptor (Homo sapiens, UniProt P35348).
T2 sequence (P35348 1-466): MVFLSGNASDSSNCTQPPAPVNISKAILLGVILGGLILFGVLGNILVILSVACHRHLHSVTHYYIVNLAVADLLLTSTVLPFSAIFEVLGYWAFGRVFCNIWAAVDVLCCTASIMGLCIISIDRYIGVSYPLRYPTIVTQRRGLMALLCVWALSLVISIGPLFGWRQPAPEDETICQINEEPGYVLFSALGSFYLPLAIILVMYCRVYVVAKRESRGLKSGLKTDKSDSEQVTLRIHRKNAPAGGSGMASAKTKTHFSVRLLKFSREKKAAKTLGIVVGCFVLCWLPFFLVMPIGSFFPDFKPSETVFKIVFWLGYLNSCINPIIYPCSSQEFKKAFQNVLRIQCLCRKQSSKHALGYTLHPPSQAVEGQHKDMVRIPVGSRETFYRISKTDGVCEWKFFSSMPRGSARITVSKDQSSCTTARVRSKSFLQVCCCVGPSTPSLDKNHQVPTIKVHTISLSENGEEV
Description: FLIPR Ca^2+ flux agonist assay at Alpha1A. The series is classed as cell-based. The procedure: Disclosed compounds were tested for agonist activity at several adrenergic (Alpha1A and Alpha2A) and dopamine (D1 and D2) receptor subtypes using Ca^2+ flux functional assays, with the results summarized in Table 6. Selectivity for the 5-HT2A receptor over these other targets varied depending on the specific target and compound.
(§1) Functional Assays at Adrenergic and Dopamine Receptors. Agonist activity at Alpha1A, Alpha2A, D1, and D2 receptors was determined using a FLIPR Ca^2+ flux assay at WuXi AppTec (Hong Kong) Limited according to their standard protocols. Briefly, stably transfected cells expressing the receptor of interest were grown and plated in a 384 well plate and incubated at 37° C. and 5% CO2 overnight. A solution of 250 mM probenecid in 1 mL FLIPR assay buffer was prepared fresh. This was combined with a fluorescent dye (Fluo-4 Direct™) to make a final assay concentration of 2.5 mM. Compounds were diluted 1:3.16 for 10 points and 750 nL was added to a 384 well compound plate using ECHO along with 30 μL assay buffer. The fluorescent dye was then added to the assay plate along with assay buffer to a final volume of 40 μL. The cell plate was incubated for 50 min at 37° C. and 5% CO2 and placed into the FLIPR Tetra along with the compound plate. 10 μL of references and compounds were then transferred from the compound plate into the cell plate and the fluorescent signal was read.

A further series deals with D1 receptor (Homo sapiens, UniProt P21728). Description: FLIPR Ca^2+ flux agonist assay at D1. Format: cell-based. The procedure:
as §1, with “Compounds were diluted 1:3.16 for 10 points and 750 nL was added to a 384 well compound plate using ECHO along with 30 μL assay buffer.” left out

The next series deals with D2 receptor (Homo sapiens, UniProt P14416). Description: FLIPR Ca^2+ flux agonist assay at D2. Format: cell-based. How it is done:
as §1, with “Compounds were diluted 1:3.16 for 10 points and 750 nL was added to a 384 well compound plate using ECHO along with 30 μL assay buffer.” left out

Series [1] is described as follows: Metabolic stability in human liver microsomes (HLM). Format: in vitro ADME. The text has this: HLM Stability. Pooled HLM from adult male and female donors (Corning 452117) were used.
A general note: Liver microsomes are a subcellular fraction often used to study metabolism.

Series [2] is described as follows: Metabolic stability in mouse liver microsomes (MLM). Format: in vitro ADME. The conditions noted are these: 0.50 mg protein per mL. An excerpt: MLM Stability Pooled MLM from CD-1 mice (BIOIVT M00501) were used.
A short description of series [3]: Metabolic stability in rat liver microsomes (RLM).

T1 sequence (P28223 whole entry): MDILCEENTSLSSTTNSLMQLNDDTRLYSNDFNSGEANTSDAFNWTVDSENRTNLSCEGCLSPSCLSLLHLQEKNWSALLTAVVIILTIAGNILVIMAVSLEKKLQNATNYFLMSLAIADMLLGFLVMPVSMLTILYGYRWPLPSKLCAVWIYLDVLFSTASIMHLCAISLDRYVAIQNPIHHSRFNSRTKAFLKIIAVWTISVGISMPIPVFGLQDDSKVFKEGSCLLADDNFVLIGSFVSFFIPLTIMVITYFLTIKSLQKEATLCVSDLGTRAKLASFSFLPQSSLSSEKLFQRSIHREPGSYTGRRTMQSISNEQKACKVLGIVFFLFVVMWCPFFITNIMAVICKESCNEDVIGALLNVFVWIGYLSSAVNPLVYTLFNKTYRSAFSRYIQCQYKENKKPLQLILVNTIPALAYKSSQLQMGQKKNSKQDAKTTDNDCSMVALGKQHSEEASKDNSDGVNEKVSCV
D2 receptor, sequence (P14416 whole entry): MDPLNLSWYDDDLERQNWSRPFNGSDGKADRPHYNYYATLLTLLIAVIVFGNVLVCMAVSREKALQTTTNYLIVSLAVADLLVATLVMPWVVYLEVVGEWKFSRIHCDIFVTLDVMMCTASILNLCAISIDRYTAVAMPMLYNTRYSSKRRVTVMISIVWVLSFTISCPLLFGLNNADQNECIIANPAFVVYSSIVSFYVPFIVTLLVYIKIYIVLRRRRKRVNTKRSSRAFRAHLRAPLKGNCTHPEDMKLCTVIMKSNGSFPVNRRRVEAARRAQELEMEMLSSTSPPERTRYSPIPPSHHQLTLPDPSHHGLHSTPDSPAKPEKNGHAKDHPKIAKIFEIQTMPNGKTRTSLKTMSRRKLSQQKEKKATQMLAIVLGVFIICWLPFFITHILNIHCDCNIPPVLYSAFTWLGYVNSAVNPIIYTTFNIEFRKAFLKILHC
5-HT1B receptor, sequence (P28222 whole entry): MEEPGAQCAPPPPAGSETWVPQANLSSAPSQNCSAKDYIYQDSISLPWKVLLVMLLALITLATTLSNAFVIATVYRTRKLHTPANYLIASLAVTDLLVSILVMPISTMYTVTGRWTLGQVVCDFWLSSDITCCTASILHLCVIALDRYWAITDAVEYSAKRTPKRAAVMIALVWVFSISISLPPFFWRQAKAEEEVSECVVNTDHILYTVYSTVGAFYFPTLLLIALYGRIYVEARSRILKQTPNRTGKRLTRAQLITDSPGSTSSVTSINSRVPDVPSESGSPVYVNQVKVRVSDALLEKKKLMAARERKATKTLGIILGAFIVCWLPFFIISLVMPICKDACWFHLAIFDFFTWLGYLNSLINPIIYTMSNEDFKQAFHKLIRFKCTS
D1 receptor, sequence (P21728 whole entry): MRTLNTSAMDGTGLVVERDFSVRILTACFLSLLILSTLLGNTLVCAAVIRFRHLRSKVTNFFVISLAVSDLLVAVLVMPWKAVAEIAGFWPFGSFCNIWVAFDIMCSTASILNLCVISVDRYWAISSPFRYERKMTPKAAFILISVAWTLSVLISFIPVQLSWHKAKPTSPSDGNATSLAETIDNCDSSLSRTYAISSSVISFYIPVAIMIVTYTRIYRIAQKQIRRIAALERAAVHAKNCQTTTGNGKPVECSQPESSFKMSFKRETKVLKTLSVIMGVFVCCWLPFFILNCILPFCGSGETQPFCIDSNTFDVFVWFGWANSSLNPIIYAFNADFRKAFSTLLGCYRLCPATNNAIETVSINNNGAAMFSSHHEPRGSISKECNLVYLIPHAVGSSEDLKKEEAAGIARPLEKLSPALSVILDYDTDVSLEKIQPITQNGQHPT

Take `CCN(CC)C(=O)[C@@H]1C=C2c3cccc4[nH]cc(c34)C[C@H]2N(C)C1` [LSD, lysergic acid diethylamide, reference compound]: the EC50 on 5-HT1B receptor is 2.06 nM; at Alpha1A receptor, 91.1 nM; on D1 receptor, 4.87 nM; on D2 receptor, 4.93 nM. Moreover, the Emax on 5-HT2A receptor was less than 60%. Moreover, at 5-HT2A receptor, the “agonist type in arrestin recruitment assay (in words)” value is reported as “partial agonists”. The “t1/2” value in series [1] (1 μM, 0.50 mg protein per mL) was 1.19 h; in series [2] (MLM (CD-1), 1 μM), 0.522 h; in series [3] (RLM, 0.50 mg protein per mL), 1 h. Besides, the microsomal CLint at 1 μM in series [1] (both sexes, human, pooled human liver microsomes, pH 7.4, 0.50 mg protein per mL) is 19.4 µL/min/mg; in series [2] (mouse, pooled mouse liver microsomes, pH 7.4, MLM (CD-1)) it was 44.2 µL/min/mg; in series [3] (both, rat, pooled rat liver microsomes, pH 7.4), 23 µL/min/mg.

The values above are taken from US20230116703A1, “NOVEL ERGOLINES AND METHODS OF TREATING MOOD DISORDERS” (priority 2021, published 2023).
